The record followed here is patent US12673945B2, “3-((8-((1H-pyrazol-4-yl)amino)imidazo[1,2-a]pyridin-3-yl)ethinyl)-n-phenylbenzamide derivative, method for preparing same, and pharmaceutical composition containing same as active ingredient for prevention or treatment of cancer” (DAEGU-GYEONGBUK MEDICAL INNOVATION FOUNDATION, priority 2020, dated 2026).

Type in all cases: cell-based
One assay concerns KOPM28 cells. The assay can be described thus: human CML cell proliferation inhibition. The following applies: 72 hours, Cell Counting Kit-8. Summed up: (§1)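 Bcr-Abl TCCS and KOPM28 cells, plus their T315I-Bcr-Abl counterparts, are treated with compound (final 0–10 μM, 5-fold steps) for 72 h at 37 °C. Viability is measured by CCK-8 at 450 nm, and GI50 is computed as percent of DMSO control.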

In another assay the test system is T315I-TCCS cells. The assay can be described thus: human CML cell proliferation inhibition. To be noted: 72 hours, Cell Counting Kit-8. Summed up: as §1
(In general: Tetrazolium dyes change colour on reduction, which living cells bring about.)

For a further assay, the system named is T315I-KOPM28 cells. The assay can be described thus: human CML cell proliferation inhibition. The following applies: 72 hours, Cell Counting Kit-8. Summed up: as §1
The test system of the next assay is TCCS cells. The assay can be described thus: human CML cell proliferation inhibition. The following applies: 72 hours, Cell Counting Kit-8. The procedure, abridged: as §1
The next assay deals with T315I-Bcr-Abl (Ba/F3). The assay can be described thus: Ba/F3 cell proliferation inhibition. To be noted: BaF3; 72 hours, Cell Counting Kit-8. The procedure, abridged:
(§2)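 GI50 derived from CCK-8 absorbance at 450 nm (2 h development), expressed relative to DMSO vehicle. Cells (parental or T315I-Bcr-Abl Ba/F3, 1×10^4/well) received nine threefold-diluted concentrations, final 0 to 10 μM, for 72 h at 37 °C.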

The test system of a further assay is Parental (Ba/F3). The experiment in a line: Ba/F3 cell proliferation inhibition. The following applies: BaF3; 72 hours, Cell Counting Kit-8. The procedure, abridged:
as §2

A word on the GI50: it is the concentration that inhibits growth by half. On to `Cc1cc(F)c(C(=O)Nc2cc(CN3CCC(N(C)C)C3)cc(C(F)(F)F)c2)cc1C#Cc1cnc2c(Nc3cnn(C)c3)cccn12` (stereo not drawn) [Example 68, N-(3-((3-(dimethylamino)pyrrolidin-1-yl)methyl)-5-(trifluoromethyl)phenyl)-2-fluoro-4-methyl-5-((8-((1-methyl-1H-pyrazol-4-yl)amino)imidazo[1,2-a]pyridin-3-yl)ethynyl)benzamide], for which the GI50 with KOPM28 cells was under 10 nM; in the assay with T315I-TCCS cells, 100 nM; in the assay with T315I-KOPM28 cells it was 100 nM; in the assay with TCCS cells, under 10 nM; in the assay on T315I-Bcr-Abl (Ba/F3), under 50 nM; in the assay on Parental (Ba/F3) it was 500 to 5000 nM.

Turning to `Cc1cc(F)c(C(=O)Nc2ccc(Cn3cncn3)c(C(F)(F)F)c2)cc1C#Cc1cnc2c(Nc3cnn(C)c3)cccn12` [Example 64, N-(4-((1H-1,2,4-triazol-1-yl)methyl)-3-(trifluoromethyl)phenyl)-2-fluoro-4-methyl-5-((8-((1-methyl-1H-pyrazol-4-yl)amino)imidazo[1,2-a]pyridin-3-yl)ethynyl)benzamide], the 50% growth inhibitory concentration (GI50) in the assay with KOPM28 cells was under 10 nM; with T315I-TCCS cells, 100 nM; in the assay with T315I-KOPM28 cells it was over 100 nM; in the assay on TCCS cells, under 10 nM; in the assay with T315I-Bcr-Abl (Ba/F3), 50 to 500 nM; in the assay with Parental (Ba/F3), over 5000 nM.

Turning to `Cc1cc(F)c(C(=O)Nc2cc(CN3CCN(C)CC3)cc(C(C)(C)C#N)c2)cc1C#Cc1cnc2c(Nc3cn[nH]c3)cccn12` [Example 84, 5-((8-((1H-pyrazol-4-yl)amino)imidazo[1,2-a]pyridin-3-yl)ethynyl)-N-(3-(2-cyanopropan-2-yl)-5-((4-methylpiperazin-1-yl)methyl)phenyl)-2-fluoro-4-methylbenzamide], the concentration for 50% growth inhibition (GI50) in the assay with KOPM28 cells was under 10 nM; in the assay with T315I-TCCS cells it was 100 nM; in the assay with T315I-KOPM28 cells, over 100 nM; in the assay with TCCS cells, under 10 nM; in the assay on T315I-Bcr-Abl (Ba/F3) it was 50 to 500 nM; with Parental (Ba/F3), 500 to 5000 nM.

For `Cc1cc(F)c(C(=O)Nc2cc(CN3CCN(S(C)(=O)=O)CC3)cc(C(C)(C)C#N)c2)cc1C#Cc1cnc2c(Nc3cn[nH]c3)cccn12` [Example 87, 5-((8-((1H-pyrazol-4-yl)amino)imidazo[1,2-a]pyridin-3-yl)ethynyl)-N-(3-(2-cyanopropan-2-yl)-5-((4-(methylsulfonyl)piperazin-1-yl)methyl)phenyl)-2-fluoro-4-methylbenzamide], the 50% growth inhibitory concentration (GI50) was under 10 nM in the assay on KOPM28 cells; 100 nM in the assay on T315I-TCCS cells; over 100 nM in the assay on T315I-KOPM28 cells; under 10 nM in the assay on TCCS cells; 50 to 500 nM in the assay with T315I-Bcr-Abl (Ba/F3); over 5000 nM with Parental (Ba/F3).

Take `Cc1cn(-c2cc(NC(=O)c3cc(C#Cc4cnc5c(Nc6cn[nH]c6)cccn45)c(C)cc3F)cc(C(F)(F)F)c2)cn1` [Example 95, 5-((8-((1H-pyrazol-4-yl)amino)imidazo[1,2-a]pyridin-3-yl)ethynyl)-2-fluoro-4-methyl-N-(3-(4-methyl-1H-imidazol-1-yl)-5-(trifluoromethyl)phenyl)benzamide]: the 50% growth inhibitory concentration (GI50) with KOPM28 cells was under 10 nM; in the assay on T315I-TCCS cells it was 100 nM; in the assay on T315I-KOPM28 cells, 100 nM; with TCCS cells, under 10 nM; with T315I-Bcr-Abl (Ba/F3), under 50 nM; in the assay on Parental (Ba/F3), over 5000 nM.

Consider `Cc1cc(F)c(C(=O)Nc2cc(-c3cccnc3)cc(C(C)(C)C#N)c2)cc1C#Cc1cnc2c(Nc3cnn(C)c3)cccn12` [Example 18, N-(3-(2-cyanopropan-2-yl)-5-(pyridin-3-yl)phenyl)-2-fluoro-4-methyl-5-((8-((1-methyl-1H-pyrazol-4-yl)amino)imidazo[1,2-a]pyridin-3-yl)ethynyl)benzamide], for which the GI50 is under 10 nM with KOPM28 cells; 100 nM with T315I-TCCS cells; 100 nM in the assay on T315I-KOPM28 cells; under 10 nM with TCCS cells; 50 to 500 nM with T315I-Bcr-Abl (Ba/F3); over 5000 nM in the assay with Parental (Ba/F3).

On to `Cc1cc(F)c(C(=O)Nc2cc(-c3cnn(C)c3)cc(C(C)(C)C#N)c2)cc1C#Cc1cnc2c(Nc3cnn(C)c3)cccn12` [Example 19, N-(3-(2-cyanopropan-2-yl)-5-(1-methyl-1H-pyrazol-4-yl)phenyl)-2-fluoro-4-methyl-5-((8-((1-methyl-1H-pyrazol-4-yl)amino)imidazo[1,2-a]pyridin-3-yl)ethynyl)benzamide], for which the GI50 with KOPM28 cells was under 10 nM; with T315I-TCCS cells it was 100 nM; in the assay on T315I-KOPM28 cells, over 100 nM; in the assay on TCCS cells, under 10 nM; in the assay on T315I-Bcr-Abl (Ba/F3) it was 50 to 500 nM; in the assay on Parental (Ba/F3) it was over 5000 nM.

Consider `Cc1cc(F)c(C(=O)Nc2cc(CN3CCC(N(C)C)C3)cc(C(F)(F)F)c2)cc1C#Cc1cnc2c(Nc3cn[nH]c3)cccn12` (stereo not drawn) [Example 105, 5-((8-((1H-pyrazol-4-yl)amino)imidazo[1,2-a]pyridin-3-yl)ethynyl)-N-(3-((3-(dimethylamino)pyrrolidin-1-yl)methyl)-5-(trifluoromethyl)phenyl)-2-fluoro-4-methylbenzamide], for which the GI50 with KOPM28 cells was under 10 nM; in the assay with T315I-TCCS cells, under 10 nM; in the assay with T315I-KOPM28 cells it was 100 nM; in the assay with TCCS cells, under 10 nM; with T315I-Bcr-Abl (Ba/F3), under 50 nM; in the assay with Parental (Ba/F3), 500 to 5000 nM.

Consider `Cc1cc(F)c(C(=O)Nc2ccc(CN3CCN(C)C(=O)C3)c(C(F)(F)F)c2)cc1C#Cc1cnc2c(Nc3cn[nH]c3)cccn12` [Example 112, 5-((8-((1H-pyrazol-4-yl)amino)imidazo[1,2-a]pyridin-3-yl)ethynyl)-2-fluoro-4-methyl-N-(4-((4-methyl-3-oxopiperazin-1-yl)methyl)-3-(trifluoromethyl)phenyl)benzamide], for which the 50% growth inhibitory concentration (GI50) in the assay with KOPM28 cells is under 10 nM; with T315I-TCCS cells, 100 nM; in the assay with T315I-KOPM28 cells, 100 nM; in the assay on TCCS cells, under 10 nM; in the assay on T315I-Bcr-Abl (Ba/F3), 50 to 500 nM; in the assay on Parental (Ba/F3) it was 500 to 5000 nM.

For the molecule `Cc1cc(F)c(C(=O)Nc2ccc(CN3CCN(S(C)(=O)=O)CC3)c(C(C)(C)C#N)c2)cc1C#Cc1cnc2c(Nc3cnn(C)c3)cccn12` [Example 45, N-(3-(2-cyanopropan-2-yl)-4-((4-(methylsulfonyl)piperazin-1-yl)methyl)phenyl)-2-fluoro-4-methyl-5-((8-((1-methyl-1H-pyrazol-4-yl)amino)imidazo[1,2-a]pyridin-3-yl)ethynyl)benzamide], the GI50 with KOPM28 cells is under 10 nM; in the assay on T315I-TCCS cells, over 100 nM; with T315I-KOPM28 cells, over 100 nM; in the assay on TCCS cells, under 10 nM; in the assay with T315I-Bcr-Abl (Ba/F3), 500 to 5000 nM; with Parental (Ba/F3) it was over 5000 nM.

In the case of `Cc1cc(F)c(C(=O)Nc2cc(Cn3cncn3)cc(C(F)(F)F)c2)cc1C#Cc1cnc2c(Nc3cnn(C)c3)cccn12` [Example 74, N-(3-((1H-1,2,4-triazol-1-yl)methyl)-5-(trifluoromethyl)phenyl)-2-fluoro-4-methyl-5-((8-((1-methyl-1H-pyrazol-4-yl)amino)imidazo[1,2-a]pyridin-3-yl)ethynyl)benzamide], the 50% growth inhibitory concentration (GI50) was under 10 nM with KOPM28 cells; 100 nM in the assay on T315I-TCCS cells; 100 nM with T315I-KOPM28 cells; under 10 nM with TCCS cells; under 50 nM in the assay on T315I-Bcr-Abl (Ba/F3); over 5000 nM with Parental (Ba/F3).

As to `Cc1cc(F)c(C(=O)Nc2ccc(CN3CCCN(C)CC3)c(C(C)(C)C#N)c2)cc1C#Cc1cnc2c(Nc3cnn(C)c3)cccn12` [Example 42, N-(3-(2-cyanopropan-2-yl)-4-((4-methyl-1,4-diazepan-1-yl)methyl)phenyl)-2-fluoro-4-methyl-5-((8-((1-methyl-1H-pyrazol-4-yl)amino)imidazo[1,2-a]pyridin-3-yl)ethynyl)benzamide], the GI50 in the assay on KOPM28 cells is under 10 nM; with T315I-TCCS cells, 100 nM; in the assay with T315I-KOPM28 cells, over 100 nM; with TCCS cells, under 10 nM; in the assay with T315I-Bcr-Abl (Ba/F3), 50 to 500 nM; with Parental (Ba/F3), 500 to 5000 nM.

As for `Cc1cc(Cl)c(C(=O)Nc2cc(CN3CCN(CCO)CC3)cc(C(C)(C)C#N)c2)cc1C#Cc1cnc2c(Nc3cnn(C)c3)cccn12` [Example 16, 2-chloro-N-(3-(2-cyanopropan-2-yl)-5-((4-(2-hydroxyethyl)piperazin-1-yl)methyl)phenyl)-4-methyl-5-((8-((1-methyl-1H-pyrazol-4-yl)amino)imidazo[1,2-a]pyridin-3-yl)ethynyl)benzamide], the GI50 in the assay with KOPM28 cells is under 10 nM; with T315I-TCCS cells it was 100 nM; in the assay on T315I-KOPM28 cells, 100 nM; with TCCS cells it was under 10 nM; in the assay with T315I-Bcr-Abl (Ba/F3), 50 to 500 nM; with Parental (Ba/F3), over 5000 nM.

On to `Cc1cc(F)c(C(=O)Nc2cc(N3CCC(N4CCN(C)CC4)CC3)cc(C(C)(C)C#N)c2)cc1C#Cc1cnc2c(Nc3cnn(C)c3)cccn12` [Example 25, N-(3-(2-cyanopropan-2-yl)-5-(4-(4-methylpiperazin-1-yl)piperidin-1-yl)phenyl)-2-fluoro-4-methyl-5-((8-((1-methyl-1H-pyrazol-4-yl)amino)imidazo[1,2-a]pyridin-3-yl)ethynyl)benzamide], for which the 50% growth inhibitory concentration (GI50) with KOPM28 cells is under 10 nM; with T315I-TCCS cells, over 100 nM; in the assay with T315I-KOPM28 cells, 100 nM; in the assay with TCCS cells it was under 10 nM; with T315I-Bcr-Abl (Ba/F3), 50 to 500 nM; in the assay with Parental (Ba/F3) it was 500 to 5000 nM.

Consider `Cc1cc(F)c(C(=O)Nc2cc(OCCN(C)C)cc(C(F)(F)F)c2)cc1C#Cc1cnc2c(Nc3cn[nH]c3)cccn12` [Example 102, 5-((8-((1H-pyrazol-4-yl)amino)imidazo[1,2-a]pyridin-3-yl)ethynyl)-N-(3-(2-(dimethylamino)ethoxy)-5-(trifluoromethyl)phenyl)-2-fluoro-4-methylbenzamide], for which the concentration for 50% growth inhibition (GI50) with KOPM28 cells is under 10 nM; with T315I-TCCS cells, 100 nM; with T315I-KOPM28 cells it was over 100 nM; in the assay on TCCS cells, under 10 nM; in the assay with T315I-Bcr-Abl (Ba/F3), 50 to 500 nM; with Parental (Ba/F3), 500 to 5000 nM.
